Target: monoclonal antibody against 2,4-D (MAb)
Experiment: fluorescence polarization titration of tracer with antibody
Type: binding

Kd [nM] | SMILES
3.2 ± 0.5 | O=C(COc1ccc(Cl)cc1Cl)NCCCCNC(=S)Nc1ccc(-c2c3ccc(=O)cc-3oc3cc(O)ccc23)c(C(=O)O)c1 [2,4-D-BDF, 2,4-D-buthylenediamin fluoresceinthiocarbamyl]
3.7 ± 0.6 | O=C(COc1ccc(Cl)cc1Cl)NCC(=O)Nc1ccc(-c2c3ccc(=O)cc-3oc3cc(O)ccc23)c(C(=O)O)c1 [2,4-D-GAF, 2,4-D-glycine aminofluorescein]

From PMC11763590, “Fluorescence Polarization Immunoassay for Rapid, Sensitive Detection of the Herbicide 2,4-Dichlorophenoxyacetic Acid in Juice and Water Samples” (Biosensors, 2025)
